From publication PMC8533206 (Antioxidants, 2021)
Structures can show the parent of a compound that is named as a salt. Where two headings read alike, the source gives them in different places.

What was measured:
PC12 cells [1] = assay: 6-OHDA-induced ROS generation in PC12 cells (H2-DCFDA); type: cell-based, rat
Description: (§1) The involvement of oxidative stress in the observed reduction in cell viability was investigated using the fluorescent dye H2-DCFDA as described previously. Briefly, cells were loaded with 10 μM H2-DCFDA for 30 min at 37 °C. Subsequently, cells were exposed for 4 h to 10 μM of test compounds followed by the addition of 50 μM 6-OHDA or 1 μM rotenone for 20 h, and fluorescence was measured spectrophotometrically at 488/520 nm in a microplate reader (SpectraMax M2e). N-acetylcysteine (NAC, 5 mM) was included as a […] control for oxidative stress.

[2] = Protective effect against 6-OHDA-induced cytotoxicity in PC12 cells (MTT); conditions: rat
Description: (§2) PC12 cells were routinely maintained in RPMI-1640 media containing 100 IU/mL penicillin, and 100 μg/mL streptomycin supplemented by 10% heat-inactivated HS, 5% FBS in a humidified incubator containing 5% CO2 and 95% air at 37 °C [25]. The cell culture media was changed every two days. To perform experiments, cells were plated on poly-D-lysine/laminin-coated 24-well plates at a density of 3 × 10^5 cells/well and incubated for at least 24 h to allow cell adhesion.
(§3) To examine the effects of the test compounds on cell survival, cells were incubated in low serum media (1% HS, 1% FBS, 100 IU/mL penicillin, and 100 μg/mL streptomycin) with test compounds at the concentrations of 10 and 30 μM or an equivalent volume of vehicle control (DMSO at the final concentration of 0.3%) for 24 h. The media containing test compounds was sonicated at room temperature for 30 min to assure adequate dissolution in the media. […]
(§4) After the desired treatment, cell viability was determined by MTT assay as described previously, with slight modification. […] The absorbance of the dissolved solution was measured at 550 nm using a microplate reader (SpectraMax M2e, Molecular Devices, Sunnyvale, CA, USA). The cell viability was presented as the percentage of the absorbance measured in the vehicle-treated control cells. […]

MAO-A = conditions: cited from earlier work
MAO-B = conditions: cited from earlier work; for % MAO-B Inhibition: single dose 10 μM; for Selectivity Index (SI): MAO-B over MAO-A, calculated
PC12 cells [3] = assay: Rotenone-induced ROS generation in PC12 cells (H2-DCFDA); type: cell-based, rat; conditions: 5 mM, positive reference
Description: as §1

PC12 cells [4] = assay: Protective effect against rotenone-induced cytotoxicity in PC12 cells (MTT); conditions: 1 μM rotenone, 24 h, compared to vehicle-treated control
Description: as §2, §3, §4

[5] = previously reported indazole derivatives

NCCc1cc(O)c(O)cc1O [Compound 6-OHDA, 6-Hydroxydopamine, reference compound]
ROS generation, fold of control cells (PC12 cells [1]; 6-OHDA 50 μM, 20 h): approximately 4 fold | viability at 24 h, 50 μM [2]: 47.5 ± 1.2%

Cn1cc(C(=O)Nc2ccc3[nH]ncc3c2)ccc1=O [IV]
IC50 (MAO-A; [5]): > 10000 nM | IC50 (MAO-B; [5]): > 10000 nM

O=C(Nc1ccc2c(ccn2Cc2ccc(F)cc2)c1)c1cnccn1 [IX]
IC50 (MAO-A; previous study): > 100000 nM | IC50 (MAO-B; previous study): 1660 nM | % MAO-B Inhibition (MAO-B; previous study): 88.49%

CC(=O)N[C@@H](CS)C(=O)O [NAC, N-acetylcysteine, reference compound]
Effect on 6-OHDA-induced ROS generation (PC12 cells [1]; 5 mM, positive reference): dramatic inhibition of ROS | Effect on rotenone-induced ROS generation (PC12 cells [3]): dramatic inhibition of ROS

O=C(Nc1ccc2c(ccn2C(=O)c2cccc(F)c2)c1)c1cnccn1 [VIII, N-(1-(3-fluorobenzoyl)-1H-indol-5-yl)pyrazine-2-carboxamide]
IC50 (MAO-A; previous study): > 100000 nM | Selectivity Index (SI) (MAO-B; previous study): > 120 | IC50 (MAO-B; previous study): 777 nM | % MAO-B Inhibition (MAO-B; previous study): 66.39%

O=C(Nc1ccc2[nH]ncc2c1)c1c(F)cccc1Cl [VI]
IC50 (MAO-A; [5]): > 10000 nM | IC50 (MAO-B; [5]): 3300 nM

O=C(Nc1ccc2[nH]ncc2c1)c1cccc(Cl)c1Cl [V]
IC50 (MAO-A; [5]): > 10000 nM | IC50 (MAO-B; [5]): 2590 nM

O=C(Nc1ccc2c(ccn2Cc2ccccn2)c1)c1cnccn1 [X]
% MAO-B Inhibition (MAO-B; previous study): 2.38%

COc1ccc2c(c1)[nH]c1c(C)nccc12 [harmine]
IC50 (MAO-A; selective MAO-A inhibitor): 6 nM

C=C(C)[C@H]1Cc2c(ccc3c2O[C@@H]2COc4cc(OC)c(OC)cc4[C@@H]2C3=O)O1 [rotenone, reference compound]
Cell death of PC12 cells exposed to toxin (PC12 cells [4]): 53.1 ± 2.9%
